Measurements reported in the NIST ThermoML archive (doi:10.1021/je4004806).

Experiment: xn = mol fraction of the nth substance listed
Conditions: 101 kPa, Liquid; for viscosity: Capillary tube (Ostwald / Ubbelohde) method; for mass density: Vibrating tube method

CCCCCCCC [octane] + CCCO
Conditions	mass density [kg/m3]	viscosity [mPa·s]
293.15 K, x1 = 0.0997	782.97	1.692
293.15 K, x1 = 0.1999	766.37	1.356
293.15 K, x1 = 0.3	752.87	1.092
293.15 K, x1 = 0.3997	741.8	0.934
293.15 K, x1 = 0.4993	732.43	0.798
293.15 K, x1 = 0.602	724.19	0.703
293.15 K, x1 = 0.6991	717.48	0.632
293.15 K, x1 = 0.7994	711.55	0.587
293.15 K, x1 = 0.9	706.48	0.556
293.15 K, x1 = 1	702.54	0.545
298.15 K, x1 = 0.0997	778.9	1.508
298.15 K, x1 = 0.1999	762.25	1.216
298.15 K, x1 = 0.3	748.72	0.991
298.15 K, x1 = 0.3997	737.62	0.854
298.15 K, x1 = 0.4993	728.24	0.734
298.15 K, x1 = 0.602	719.99	0.65
298.15 K, x1 = 0.6991	713.3	0.589
298.15 K, x1 = 0.7994	707.39	0.55
298.15 K, x1 = 0.9	702.35	0.523
298.15 K, x1 = 1	698.49	0.513
303.15 K, x1 = 0.0997	774.8	1.352
303.15 K, x1 = 0.1999	758.1	1.097
303.15 K, x1 = 0.3	744.53	0.899
303.15 K, x1 = 0.3997	733.4	0.777
303.15 K, x1 = 0.4993	724.01	0.675
303.15 K, x1 = 0.602	715.77	0.603
303.15 K, x1 = 0.6991	709.09	0.55
303.15 K, x1 = 0.7994	703.2	0.515
303.15 K, x1 = 0.9	698.19	0.491
303.15 K, x1 = 1	694.44	0.485
308.15 K, x1 = 0.0997	770.67	1.211
308.15 K, x1 = 0.1999	753.91	0.992
308.15 K, x1 = 0.3	740.3	0.817
308.15 K, x1 = 0.3997	729.15	0.712
308.15 K, x1 = 0.4993	719.75	0.623
308.15 K, x1 = 0.602	711.51	0.56
308.15 K, x1 = 0.6991	704.85	0.514
308.15 K, x1 = 0.7994	698.98	0.484
308.15 K, x1 = 0.9	694.02	0.463
308.15 K, x1 = 1	690.37	0.459
313.15 K, x1 = 0.0997	766.5	1.09
313.15 K, x1 = 0.1999	749.69	0.898
313.15 K, x1 = 0.3	736.04	0.745
313.15 K, x1 = 0.3997	724.85	0.653
313.15 K, x1 = 0.4993	715.44	0.576
313.15 K, x1 = 0.602	707.21	0.52
313.15 K, x1 = 0.6991	700.57	0.481
313.15 K, x1 = 0.7994	694.73	0.455
313.15 K, x1 = 0.9	689.81	0.436
313.15 K, x1 = 1	686.29	0.433
318.15 K, x1 = 0.0997	762.28	0.984
318.15 K, x1 = 0.1999	745.41	0.817
318.15 K, x1 = 0.3	731.72	0.68
318.15 K, x1 = 0.3997	720.51	0.605
318.15 K, x1 = 0.4993	711.09	0.534
318.15 K, x1 = 0.602	702.87	0.485
318.15 K, x1 = 0.6991	696.25	0.451
318.15 K, x1 = 0.7994	690.45	0.427
318.15 K, x1 = 0.9	685.58	0.412
318.15 K, x1 = 1	682.19	0.412
323.15 K, x1 = 0.0997	758.02	0.89
323.15 K, x1 = 0.1999	741.08	0.742
323.15 K, x1 = 0.3	727.35	0.623
323.15 K, x1 = 0.3997	716.12	0.554
323.15 K, x1 = 0.4993	706.7	0.496
323.15 K, x1 = 0.602	698.49	0.452
323.15 K, x1 = 0.6991	691.9	0.423
323.15 K, x1 = 0.7994	686.13	0.403
323.15 K, x1 = 0.9	681.32	0.389
323.15 K, x1 = 1	678.08	0.392

CCCCCO [pentan-1-ol] + CCCCCCCC
Conditions	mass density [kg/m3]	viscosity [mPa·s]
293.15 K, x2 = 0	814.59	4.042
293.15 K, x2 = 0.1004	798.43	2.938
293.15 K, x2 = 0.201	783.65	2.237
293.15 K, x2 = 0.3001	770.3	1.695
293.15 K, x2 = 0.4	757.91	1.311
293.15 K, x2 = 0.4984	746.71	1.046
293.15 K, x2 = 0.5967	736.39	0.863
293.15 K, x2 = 0.6976	726.7	0.737
293.15 K, x2 = 0.7983	717.79	0.652
293.15 K, x2 = 0.8998	709.68	0.588
298.15 K, x2 = 0	810.93	3.518
298.15 K, x2 = 0.1004	794.68	2.568
298.15 K, x2 = 0.201	779.81	1.972
298.15 K, x2 = 0.3001	766.39	1.509
298.15 K, x2 = 0.4	753.94	1.18
298.15 K, x2 = 0.4984	742.7	0.953
298.15 K, x2 = 0.5967	732.34	0.796
298.15 K, x2 = 0.6976	722.64	0.685
298.15 K, x2 = 0.7983	713.72	0.605
298.15 K, x2 = 0.8998	705.59	0.55
303.15 K, x2 = 0	807.24	3.06
303.15 K, x2 = 0.1004	790.89	2.254
303.15 K, x2 = 0.201	775.94	1.747
303.15 K, x2 = 0.3001	762.45	1.349
303.15 K, x2 = 0.4	749.95	1.068
303.15 K, x2 = 0.4984	738.67	0.873
303.15 K, x2 = 0.5967	728.27	0.736
303.15 K, x2 = 0.6976	718.55	0.638
303.15 K, x2 = 0.7983	709.62	0.567
303.15 K, x2 = 0.8998	701.48	0.516
308.15 K, x2 = 0	803.53	2.659
308.15 K, x2 = 0.1004	787.09	1.984
308.15 K, x2 = 0.201	772.05	1.564
308.15 K, x2 = 0.3001	758.49	1.219
308.15 K, x2 = 0.4	745.93	0.971
308.15 K, x2 = 0.4984	734.6	0.802
308.15 K, x2 = 0.5967	724.18	0.682
308.15 K, x2 = 0.6976	714.44	0.596
308.15 K, x2 = 0.7983	705.49	0.532
308.15 K, x2 = 0.8998	697.35	0.486
313.15 K, x2 = 0	799.79	2.334
313.15 K, x2 = 0.1004	783.26	1.755
313.15 K, x2 = 0.201	768.13	1.393
313.15 K, x2 = 0.3001	754.5	1.11
313.15 K, x2 = 0.4	741.88	0.882
313.15 K, x2 = 0.4984	730.52	0.738
313.15 K, x2 = 0.5967	720.07	0.636
313.15 K, x2 = 0.6976	710.3	0.557
313.15 K, x2 = 0.7983	701.34	0.499
313.15 K, x2 = 0.8998	693.2	0.457
318.15 K, x2 = 0	796.03	2.042
318.15 K, x2 = 0.1004	779.4	1.557
318.15 K, x2 = 0.201	764.17	1.249
318.15 K, x2 = 0.3001	750.47	1.01
318.15 K, x2 = 0.4	737.81	0.807
318.15 K, x2 = 0.4984	726.4	0.681
318.15 K, x2 = 0.5967	715.92	0.589
318.15 K, x2 = 0.6976	706.14	0.521
318.15 K, x2 = 0.7983	697.16	0.47
318.15 K, x2 = 0.8998	689.02	0.431
323.15 K, x2 = 0	792.23	1.805
323.15 K, x2 = 0.1004	775.5	1.389
323.15 K, x2 = 0.201	760.18	1.117
323.15 K, x2 = 0.3001	746.41	0.911
323.15 K, x2 = 0.4	733.69	0.74
323.15 K, x2 = 0.4984	722.24	0.63
323.15 K, x2 = 0.5967	711.74	0.549
323.15 K, x2 = 0.6976	701.94	0.488
323.15 K, x2 = 0.7983	692.95	0.442
323.15 K, x2 = 0.8998	684.81	0.406
